Data: US20130178453A1, “Cannabinoid Agonists” (priority 2010, published 2013)
Where two headings read alike, the source gives them in different places.

Columns and labels:
[1] = biological target: T1, hCB2 (Homo sapiens, UniProt P34972); test: hCB2 radioligand binding assay ([3H]-CP 55,940 displacement); conditions: hCB2 IC50 (CP displ, nM, HEK), HEK membranes
Method: (§1) cDNA expression clones for human CB 1 (hCB1, Genbank Accession No. AY225225) and human CB2 (hCB2, Genbank Accession No. AY242132) expressed in vector pcDNA3.1+ were purchased from UMR cDNA Resource Center, Rolla, Mo. (Clone ID CNR01L000 for hCB1; CNR0200000 for hCB2).
(§2) Membranes were isolated from transfected cells as follows. Monolayers of cultured cells were washed twice with phosphate-buffered saline (PBS). […] Homogenates were centrifuged 10 minutes at 1000×g at 4° C. The supernatant was collected and was centrifuged for 1 hour at 40,000×g. The supernatant was then decanted and the resulting pellet was re-suspended in 20 mM HEPES, pH 7.4, 5 mM MgCl2, 1 mM EDTA, 10% sucrose with complete cocktail protease inhibitors. Protein concentration of membrane suspensions were measured by Bradford Protein Assay using bovine serum albumin as the standard (BioRad catalog #500-0006). Protein concentrations of membrane suspensions were adjusted with the final buffer in the range of 5 to 10 mg/mL and were stored at −80° C. until further use.
A rapid filtration technique using Millipore FB filter plates (Catalog #MADVNOB) and filtration apparatus (Millipore system Catalog MAVM0960R) with vacuum aspiration was used to harvest and rinse labeled membranes (8 times with 0.2 mL of chilled binding buffer). […] Binding data were analyzed using GraphPad Prism (GraphPad Software, Inc. San Diego, Calif.).

[2] = biological target: T1, hCB2; test: hCB2 GTPγS agonist assay (HEK-293 membranes); format: biochemical
Method: as §1, §2
^35S GTPγS binding assays were performed by incubating recombinant cell membranes prepared above (5 μg) in the presence of scintillation proximity assay beads (SPA beads, Catalog #RPNQ0252 GE Healthcare, Buckinghamshire, England) in GTPγS binding buffer [50 mM HEPES (pH 7.4), 100 mM NaCl, 5 mM MgCl2, 0.001% saponin (Sigma catalog #S4521)] supplemented with 20 uM GDP (Sigma catalog #G7127) in the presence or absence of test compound. The reaction was carried out in 96-well microplates with 0.1 nM [^35S]GTPγS (specific activity=1250 Ci/mmol; Perkin Elmer catalog #NEG030X250UC) in a final volume of 100 μL. After a 90 min room temperature incubation, the reaction was analyzed using a scintillation counter (Perkin Elmer Microbeta instrument). Binding data were analyzed using GraphPad Prism.

[3] = biological target: T2, hCB1 (Homo sapiens, UniProt P21554); test: hCB1 cAMP agonist assay (HEK-293 cells); format: cell-based
[4] = biological target: T1, hCB2; test: hCB2 cAMP agonist assay (HEK-293 cells); format: cell-based
Method: as §1
cAMP assays were performed in HEK-293 cells stably expressing human CB 1 or CB2 receptors. […] Cells suspensions were centrifuged and the cells were washed once with PBS, were centrifuged again, and the cells were resuspended in HBSS (Hank's Balanced Salt Solution, Cellgro, Cat #21-022-CV) solution containing 10 mM HEPES and 0.1% fatty acid free BSA (Sigma, Cat #A0281). Cell suspensions were prepared at 1,500,000 cells per mL. Stock solutions of test substances (10 mM) in DMSO were diluted to 1 mM using 30% DMSO as diluent. Test substances of solutions (1 mM) were further diluted down to 3× of final assay concentrations in the above HBSS buffer containing 0.1% BSA in the presence of 90 uM forskolin (Sigma Cat#F6886). To perform the assay, 20 μL of cell suspension (1,500,000 cells/mL) were added to each well in 96 well plate and treated with 10 μL test substance solution diluted as described above. Cells and compounds were incubated at 37° C. for 30 minutes. Cells were lysed and cAMP concentration was measured using DiscoveRx-XS+ cAMP assay kit (DiscoveRx Corporation Ltd., Fremont, Calif., USA, Cat #90-0075-03), following the manufacturer's protocol. GraphPad Prism software was used to calculate EC50 values using sigmoidal dose response curve fitting. The maximal amount of cAMP produced by forskolin was defined as 100%.

[5] = biological target: T2, hCB1; test: hCB1 radioligand binding assay ([3H]-CP 55,940 displacement); conditions: hCB1 IC50 (CP displ, nM, HEK), HEK membranes
From the text: as §1
Stable, HEK-293-derived cell lines that recombinantly express hCB1 or hCB2 were established. In brief, the clone hCB1 (CNR1L) or hCB2 (CNR2) was transfected into human embryonic kidney cells (HEK-293) using Lipofectamine 2000 (Gibco, Cat#11668-019) according to the manufacturer's protocol. Transfected clones were isolated by single colony purification and clones were screened for receptor expression using a whole cell, ^3H—CP 55,940 radioligand binding assay. HEK-293 stable cells were maintained in Dulbecco's modified Eagles medium (DMEM) containing 10% fetal bovine serum, 2 mM L-glutamine and 0.5 mg/mL G-418.
Membranes were isolated from transfected cells as follows. Monolayers of cultured cells were washed twice with phosphate-buffered saline (PBS). Cells were scraped into 20 mM HEPES, pH 7.4, 10 mM EDTA containing complete cocktail protease inhibitors (Roche, Catalog #11 697 498 001), and were homogenized by an electric-powered mechanical probe homogenizer (Omni GLH; probe G7-195S) for 40 seconds at 7000 rpm. Homogenates were centrifuged 10 minutes at 1000×g at 4° C. The supernatant was collected and was centrifuged for 1 hour at 40,000×g. The supernatant was then decanted and the resulting pellet was re-suspended in 20 mM HEPES, pH 7.4, 5 mM MgCl2, 1 mM EDTA, 10% sucrose with complete cocktail protease inhibitors. Protein concentration of membrane suspensions were measured by Bradford Protein Assay using bovine serum albumin as the standard (BioRad catalog #500-0006). Protein concentrations of membrane suspensions were adjusted with the final buffer in the range of 5 to 10 mg/mL and were stored at −80° C. until further use.
Radioligand binding assays were performed by incubating membranes (2-10 μg protein) prepared from HEK-293 cells expressing recombinant human cannabinoid receptors, CB 1 or CB2, at room temperature with 0.5 nM cannabinoid receptor agonist, [^3H]-CP 55,940 (Perkin Elmer, catalog #NET 1051) in 0.2 mL of binding buffer (50 mM Tris-HCl, pH 7.5, 5 mM MgCl2, 2.5 mM EDTA) and 0.1% fatty acid free bovine serum albumin (Sigma Cat. #A0821) for 90 minutes. A rapid filtration technique using Millipore FB filter plates (Catalog #MADVNOB) and filtration apparatus (Millipore system Catalog MAVM0960R) with vacuum aspiration was used to harvest and rinse labeled membranes (8 times with 0.2 mL of chilled binding buffer). The radioactivity bound to the filters was counted with 0.05 mL of liquid scintillant (UltraGold MV, PerkinElmer catalog #6013159) in a scintillation counter (Perkin Elmer Microbeta instrument). Nonspecific binding was determined in the presence of unlabeled 1 μM CP 55,940 (Sigma Aldrich, catalog #C1112). Binding data were analyzed using GraphPad Prism (GraphPad Software, Inc. San Diego, Calif.).

T1 sequence (P34972 whole entry): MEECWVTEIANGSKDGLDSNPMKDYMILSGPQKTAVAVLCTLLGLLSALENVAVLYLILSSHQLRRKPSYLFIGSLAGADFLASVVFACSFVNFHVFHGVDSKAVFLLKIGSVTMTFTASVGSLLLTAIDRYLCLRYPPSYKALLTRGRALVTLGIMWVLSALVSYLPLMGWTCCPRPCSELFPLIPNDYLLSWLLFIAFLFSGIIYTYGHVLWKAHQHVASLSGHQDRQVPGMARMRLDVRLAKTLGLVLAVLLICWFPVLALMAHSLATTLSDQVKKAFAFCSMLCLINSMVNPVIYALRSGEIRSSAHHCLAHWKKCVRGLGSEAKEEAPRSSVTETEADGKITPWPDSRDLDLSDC
T2 sequence (P21554 whole entry): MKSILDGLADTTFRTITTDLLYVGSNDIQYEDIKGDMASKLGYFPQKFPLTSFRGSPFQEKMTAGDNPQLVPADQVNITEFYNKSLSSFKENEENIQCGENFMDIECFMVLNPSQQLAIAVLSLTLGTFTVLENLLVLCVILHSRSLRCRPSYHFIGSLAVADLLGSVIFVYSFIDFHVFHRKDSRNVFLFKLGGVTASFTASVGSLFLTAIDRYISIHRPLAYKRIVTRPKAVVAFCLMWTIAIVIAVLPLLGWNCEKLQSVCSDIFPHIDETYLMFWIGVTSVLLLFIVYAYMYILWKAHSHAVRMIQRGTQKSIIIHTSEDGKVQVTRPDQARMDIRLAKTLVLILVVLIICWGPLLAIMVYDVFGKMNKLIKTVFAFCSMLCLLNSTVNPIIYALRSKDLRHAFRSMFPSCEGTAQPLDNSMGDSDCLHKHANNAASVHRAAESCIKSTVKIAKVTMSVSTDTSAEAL

| SMILES | IC50 [1] [nM] | EC50 ([2]; GTPγS agonist, HEK membranes, read-out: hCB2 EC50 (GTPyS ag, nM, HEK)) [nM] | EC50 ([3]; cAMP agonist, HEK, 96-well, read-out: hCB1 EC50 (cAMP ag, nM, HEK (96-well))) [nM] | EC50 ([4]; cAMP agonist, HEK, 96-well, read-out: hCB2 EC50 (cAMP ag, nM, HEK (96-well))) [nM] | IC50 [5] [nM] | EC50 [2] [nM] | hCB1 EC50 (cAMP ag, nM, HEK (96-well)) ([3]; cAMP agonist, HEK, 96-well) | EC50 [4] [nM] | EC50 [3] [nM] | hCB1 EC50 (cAMP ag, nM HEK (24-well)) ([3]; cAMP agonist, HEK, 24-well) |
| --- | --- | --- | --- | --- | --- | --- | --- | --- | --- | --- |
| CCCn1c(C)c(C(=O)c2cc3ccsc3n2CCC)c2c1CCCCC2 [Compound I-80] | < 100 | < 100 | 1000 to 10000 | < 100 | 100 to 1000 |  |  |  |  |  |
| CCCn1cc(C(=O)c2cc3ccsc3n2CC)c2cnccc21 [Compound I-22] | 100 to 1000 |  |  |  | 1000 to 10000 | 100 to 1000 | NS (“Not Significant,” which means less than 30% agonist activity when compared to the positive control) | < 100 |  |  |
| CCCn1c(C)c(C(=O)c2cc3ccsc3[nH]2)c2ccccc21 [Compound I-74] | 100 to 1000 |  |  |  | 1000 to 10000 | 100 to 1000 | NS (“Not Significant,” which means less than 30% agonist activity when compared to the positive control) | 100 to 1000 |  |  |
| CCCn1cc(C(=O)c2cc3ccsc3n2C)c2ccccc21 [Compound I-32] | < 100 |  |  |  | 100 to 1000 | < 100 |  | < 100 | 100 to 1000 |  |
| CCCn1c(C)c(C(=O)c2cc3scnc3n2CC)c2ccccc21 [Compound I-31] | 100 to 1000 |  |  |  | 1000 to 10000 | 100 to 1000 | NS (“Not Significant,” which means less than 30% agonist activity when compared to the positive control) | < 100 |  |  |
| CCCn1c(C)c(C(=O)c2cc3ccsc3n2CCC)c2cc(C)ccc21 [Compound I-69] | < 100 |  |  |  | 1000 to 10000 | < 100 | NS (“Not Significant,” which means less than 30% agonist activity when compared to the positive control) | < 100 |  |  |
| CCCCn1c(C)c(C(=O)c2cc3ccsc3n2CCC)c2ccccc21 [Compound I-58] | < 100 |  |  |  | 100 to 1000 | < 100 |  | < 100 | < 100 |  |
| CCCn1c(C)c(C(=O)c2cc3ccsc3n2CCC)c2ccccc21 [Compound I-78] | < 100 |  |  |  | 1000 to 10000 | < 100 | NS (“Not Significant,” which means less than 30% agonist activity when compared to the positive control) | < 100 |  | NS (“Not Significant,” which means less than 30% agonist activity when compared to the positive control) |
| CCCn1c(C(=O)c2c(C)n(CCN3CCOCC3)c3ccccc23)cc2ccsc21 [Compound I-73] | < 100 |  |  |  | 100 to 1000 | < 100 |  | < 100 | 100 to 1000 |  |
